Laboratory results from US10564164B2, “Fluorescent probe, singlet oxygen detection agent, and singlet oxygen detection method” (Osaka University, priority 2014, dated 2020).
Like-named read-outs stand apart in the source and are kept apart here.

Key:
[1] = cited from earlier work
[2] = Time-resolved phosphorimetry (singlet oxygen generation quantum yield); assay type: physicochemical; conditions: 250 μM in DMSO and methanol (1:9); 532 nm excitation
Protocol: A sample of Rose Bengal and the Si-Me of Comparative Example 1 was prepared in a DMSO and methanol (1:9) solution placed in a 1×1×4 cm^3 quartz cell (the concentration of Rose Bengal=21.5 μM, and the concentration of Si-Me=250 μM).
Second harmonic oscillation (532 nm, 4 nsfwhm, 5.0 mJ·cm^−2 pulse^−1) generated by a Q-switched Nd YAG laser (Surelite II-10, Continuum) was used as an excitation light. The light-induced luminescence of the sample cell was condensed on a quartz lens via a monochromator, and subsequently introduced into a near-infrared photomultiplier tube module (H10330A-75; Hamamatsu Photonics K.K.).
After the amplification using a 350-MHz amplifier unit (SR445A; Stanford Research Systems), the output of the photomultiplier tube was sent to a gated photon counter (SR400; Stanford Research Systems) under direct PC control via a GPIB interface. In order to measure the lifetime of ^1O2, measurement was performed by changing the delay time between 0 to 50 μseconds at a gate width of 1.0 μsecond, and accumulating the results (repeated 5 times).

HeLa cells = assay: Selectivity of photosensitizer: intracellular singlet oxygen detection with Si-DMA; assay type: cell-based; conditions: HeLa cells, Si-DMA probe; 60-second light irradiation; photosensitizer as labelled
Protocol: Subsequently, a quick protocol provided by Molecular Probe® for introducing CellROX Green was followed. Using diluted Si-DMA and Si-Me, incubation was performed for 30 minutes to two hours by an experiment. To introduce a photosensitizer, 150 μg/mL of 5-aminolevulinic acid (5-ALA) or 10 LM TMPyP4 were incubated for four hours and 24 hours, respectively. As a result, as previously reported, the conversion of 5-ALA into protoporphyrin IX (PpIX) in the mitochondria was confirmed by the fluorescence luminescence of PpIX.
A KillerRed vector was expressed in accordance with a general Lipofectamine® 2000 (Invitrogen) protocol. More specifically, 2×10^5 Hela cells were subcultured in a 35-mm glass bottom dish. The cells reached about 50% confluent in the next day.
Subsequently, a mixed solution of Lipofectamine reagent and DNA vector was obtained by mixing 6 μL Lipofectamine® 2000 with 7 μL pKillerRed-dMitovector ([…], Evrogen, catalog No. FP964) in an Opti-MEM solution (Gibco). Thereafter, the resulting solution was incubated for 20 minutes at room temperature. 300 μL of the mixed solution was added to a growth medium, and incubated for 24 hours. The expression of KillerRed was confirmed by monitoring KillerRed fluorescence using a wide-view microscope. […]
Further, on the night before the treatment, 0.2×10^6 HeLa cells were seeded on a 35-mm dish, and pKillerRed-dMito vector (Evrogen) was introduced using Lipofectaimine®2000 (Invitrogen®), followed by 24-hour incubation as described above, thereby preparing HeLa cells containing […]. […] Light irradiation was performed for 30 seconds simultaneously at 0.5 W/cm^2 and 0.6 W/cm^2 using a 640-/532-nm laser (Coherent) and a wide-view fluorescence microscope system mounted in an IX81 inverted microscope (Olympus Corporation). […]
Further, in this Experiment Example, 60-second light irradiation was performed using three kinds of photosensitizers, and an average number of pseudo colors appeared in the photo and an increase thereof were measured. […]

## O=C1OC2(c3cc(Cl)c(O)cc3Oc3cc(O)c(Cl)cc32)c2ccccc21 [2,7-dichlorofluorescein]
[1]; comparison value for SOSG chromophore
  ΦΔ (singlet oxygen generation quantum yield): 0.06

## O=C([O-])c1c(Cl)c(Cl)c(Cl)c(Cl)c1-c1c2cc(I)c(=O)c(I)c-2oc2c(I)c([O-])c(I)cc12.[Na+].[Na+] [Rose Bengal]
[1]; in methanol, reference value
  ΦΔ (singlet oxygen generation quantum yield): 0.76

## Cc1ccccc1C1=C2C=CC(=[N+](C)C)C=C2[Si](C)(C)c2cc(N(C)C)ccc21 [Si-Me]
[2]
  ΦΔ (singlet oxygen generation quantum yield): about 0.02

## C[n+]1ccc(-c2c3nc(c(-c4cc[n+](C)cc4)c4ccc([nH]4)c(-c4cc[n+](C)cc4)c4nc(c(-c5cc[n+](C)cc5)c5ccc2[nH]5)C=C4)C=C3)cc1 [TMPyP4, tetra-(N-methyl-4-pyridyl)porphyrin, reference compound]
HeLa cells
  average number of pseudo colors during light irradiation (Si-DMA fluorescence): decreased
